Experiments:
[1] = test system: Respiratory syncytial virus; experiment: Antiviral activity against Respiratory syncytial virus subgenomic replicon system in 395 HeLa cells assessed as reduction in viral replication after 7 days by renilla luciferase assay; type: functional, organism-based; conditions: human respiratory syncytial virus, 168 h
[2] = Cytotoxicity against human HeLa cells assessed as cell viability by CellTiter-Glo luminescent assay; type: cell-based
[3] = Inhibition of Respiratory syncytial virus RNA polymerase in crude RSV RNP complex assessed as inhibition of [33P]CMP incorporation into RNA chain

Compound | EC50 [1] | IC50 [3] | CC50 [2]
CSC[C@]1(CO)O[C@@H](n2ccc(N)nc2=O)[C@H](F)[C@@H]1O | 510 nM |  | > 63000 nM
C=C[C@]1(COP(=O)(O)OP(=O)(O)OP(=O)(O)O)O[C@@H](n2ccc(N)nc2=O)[C@H](F)[C@@H]1O |  | 90 nM | 
[N-]=[N+]=N[C@]1(CO)O[C@@H](n2ccc(N)nc2=O)C(F)(F)[C@@H]1O | 750 nM |  | > 100000 nM
Nc1ccn([C@@H]2O[C@](CCl)(COP(=O)(O)OP(=O)(O)OP(=O)(O)O)[C@@H](O)[C@@H]2F)c(=O)n1 |  | 4900 nM | 
Nc1ccn([C@@H]2O[C@@](CO)(CBr)[C@@H](O)[C@H]2F)c(=O)n1 | 480 nM |  | > 100000 nM
CO[C@]1(CO)O[C@@H](n2ccc(N)nc2=O)[C@H](F)[C@@H]1O | 12700 nM |  | > 100000 nM
[N-]=[N+]=N[C@]1(CO)O[C@@H](n2ccc(N)nc2=O)[C@H](O)[C@@H]1O [4'-AZIDOCYTIDINE] | 670 nM |  | > 80000 nM
C=CC[C@]1(CO)O[C@@H](n2ccc(N)nc2=O)[C@H](F)[C@@H]1O | 2640 nM |  | > 100000 nM
Nc1ccn([C@@H]2O[C@@](CO)(C3CC3)[C@@H](O)[C@H]2F)c(=O)n1 | 560 nM |  | > 100000 nM
C#C[C@]1(CO)O[C@@H](n2ccc(N)nc2=O)[C@H](F)[C@@H]1O | 1120 nM |  | > 100000 nM
Nc1ccn([C@@H]2O[C@@](CO)(CCl)[C@@H](O)C2(F)F)c(=O)n1 | 65000 nM |  | 62000 nM
CCC[C@]1(CO)O[C@@H](n2ccc(N)nc2=O)[C@H](F)[C@@H]1O | 2690 nM |  | > 100000 nM
C[C@]1(CO)O[C@@H](n2ccc(N)nc2=O)[C@H](F)[C@@H]1O | 2140 nM |  | > 100000 nM
[N-]=[N+]=N[C@]1(CO)O[C@@H](n2ccc(N)nc2=O)[C@@H](O)[C@@H]1O | 520 nM |  | > 100000 nM
Nc1ccn([C@@H]2O[C@@](CO)(CCl)[C@@H](O)[C@@H]2F)c(=O)n1 | > 100000 nM |  | > 100000 nM
C=C[C@]1(CO)O[C@@H](n2ccc(N)nc2=O)[C@H](F)[C@@H]1O | 1910 nM |  | > 100000 nM
Nc1ccn([C@@H]2O[C@@](CO)(CCl)[C@@H](O)[C@@H]2O)c(=O)n1 | > 100000 nM |  | > 100000 nM
Nc1ccn([C@@H]2O[C@@](CO)(CCl)[C@@H](O)[C@H]2O)c(=O)n1 | > 100000 nM |  | > 100000 nM

Now from value to compound, other results behind:

EC50 [1] | IC50 [3] | Compound | CC50 [2]
280 nM |  | CCCCCCCC(=O)OC[C@@]1(CCl)O[C@@H](n2ccc(N)nc2=O)[C@H](F)[C@@H]1OC(=O)CCCCCCC | > 66000 nM
220 nM |  | CCCCCCCC(=O)O[C@H]1[C@@H](F)[C@H](n2ccc(N)nc2=O)O[C@@]1(CO)CCl | > 70000 nM
220 nM |  | CCCCCC(=O)OC[C@@]1(CCl)O[C@@H](n2ccc(N)nc2=O)[C@H](F)[C@@H]1OC(=O)CCCCC | > 100000 nM
40 nM |  | CCC(=O)OC[C@@]1(CCl)O[C@@H](n2ccc(N)nc2=O)[C@H](F)[C@@H]1OC(=O)CC | > 100000 nM
190 nM |  | [N-]=[N+]=N[C@]1(CO)O[C@@H](n2ccc(N)nc2=O)[C@H](F)[C@@H]1O | > 100000 nM
30 nM |  | CCCCCCCC(=O)OC[C@@]1(CCl)O[C@@H](n2ccc(N)nc2=O)[C@H](F)[C@@H]1O | > 100000 nM
160 nM |  | CC(C)C(=O)O[C@H]1[C@@H](F)[C@H](n2ccc(N)nc2=O)O[C@@]1(CO)CCl | > 88000 nM
100 nM |  | CC(C)C(=O)OC[C@@]1(CCl)O[C@@H](n2ccc(N)nc2=O)[C@H](F)[C@@H]1O | > 90000 nM
40 nM |  | CC(C)[C@H](N)C(=O)OC[C@@]1(CCl)O[C@@H](n2ccc(N)nc2=O)[C@H](F)[C@@H]1O | > 100000 nM
130 nM |  | CCCCC(=O)OC[C@@]1(CCl)O[C@@H](n2ccc(N)nc2=O)[C@H](F)[C@@H]1OC(=O)CCCC | > 100000 nM
270 nM |  | CCCCCCCCCCCC(=O)O[C@H]1[C@@H](F)[C@H](n2ccc(N)nc2=O)O[C@@]1(CO)CCl | > 89000 nM

— ChEMBL document CHEMBL3414561, “Discovery of 4'-chloromethyl-2'-deoxy-3',5'-di-O-isobutyryl-2'-fluorocytidine (ALS-8176), a first-in-class RSV polymerase inhibitor for treatment of human respiratory syncytial virus infection” (J Med Chem, 2015)
